Data on 5 compounds can be found in patent US10370622B2, “Soap bar having enhanced antibacterial activity” (Conopco, Inc., priority 2013, dated 2019).

For series [1] the following is noted: in water at 25° C.; cited from earlier work.
The nature of series [2]: Silver ion solubility derived from solubility product (Ksp) in water at 25° C. The note with it: calculated as (Ksp·x)^(1/(x+1)).

Regarding `O=C([O-])c1ccccc1.[Ag+]` [Silver benzoate], the Ksp in series [1] was 2.5e-05 mol/L.

In the case of `O=C([O-])CC(O)(CC(=O)[O-])C(=O)[O-].[Ag+].[Ag+].[Ag+]` [Silver citrate], the Ksp in series [1] is 2.5e-18 mol/L.

In the case of `O=S(=O)([O-])[O-].[Ag+].[Ag+]` [Silver sulfate], the Ksp in series [1] is 1.4e-05 mol/L.

As to `[Br][Ag]` [Silver bromide], in series [1], the Ksp was 5.3e-13 mol/L.

As to `[Cl][Ag]` [Silver chloride], the Ksp in series [1] was 1.8e-10 mol/L. For the same compound, the “Silver Ion Solubility [Ag+]” value in series [2] is 13 µM.
